Numbers after ± are expanded uncertainties.
Settings: 101.33 kPa, Liquid; for viscosity: Capillary tube (Ostwald / Ubbelohde) method; for electrical conductivity: Wayne-Kerr 6430B Autobalance Bridge electrode

Row | viscosity (303.15 K) [mPa·s] | electrical conductivity (303.15 K) [S/m] | electrical conductivity (308.15 K) [S/m] | viscosity (313.15 K) [mPa·s] | electrical conductivity (313.15 K) [S/m] | electrical conductivity (318.15 K) [S/m] | viscosity (323.15 K) [mPa·s] | electrical conductivity (323.15 K) [S/m] | electrical conductivity (328.15 K) [S/m] | viscosity (333.15 K) [mPa·s] | electrical conductivity (333.15 K) [S/m] | electrical conductivity (338.15 K) [S/m] | viscosity (343.15 K) [mPa·s] | electrical conductivity (343.15 K) [S/m] | electrical conductivity (323.05 K) [S/m] | SMILES
1 | 138.5 ± 3.4 | 0.1909 ± 0.0019 | 0.249 ± 0.0025 | 80.53 ± 1.3 | 0.319 ± 0.0032 | 0.4019 ± 0.004 | 50.78 ± 0.53 | 0.498 ± 0.005 | 0.6125 ± 0.0061 | 34 ± 0.37 | 0.738 ± 0.0074 | 0.88 ± 0.0088 | 23.94 ± 0.27 | 1.04 ± 0.01 | – | CCCC[n+]1ccn(C)c1.O=C[O-] [3-butyl-1-methyl-1H-imidazolium formate]
2 | 325.7 ± 14 | 0.0703 ± 0.00071 | 0.0902 ± 0.00091 | 171.5 ± 5.2 | 0.1201 ± 0.0012 | 0.156 ± 0.0016 | 99.27 ± 1.9 | – | 0.248 ± 0.0025 | 61.78 ± 0.72 | 0.306 ± 0.0031 | 0.3716 ± 0.0037 | 40.75 ± 0.51 | 0.447 ± 0.0045 | 0.198 ± 0.002 | CCC(=O)[O-].CCCC[n+]1ccn(C)c1 [3-butyl-1-methyl-1H-imidazolium propanoate]
3 | 288.8 ± 12 | 0.0731 ± 0.00074 | 0.1014 ± 0.001 | 149.9 ± 4.2 | 0.136 ± 0.0014 | 0.178 ± 0.0018 | 86.13 ± 1.5 | 0.229 ± 0.0023 | 0.2902 ± 0.0029 | 53.43 ± 0.58 | 0.36 ± 0.0036 | 0.44 ± 0.0044 | 35.33 ± 0.44 | 0.5319 ± 0.0053 | – | CC(=O)[O-].CCCCn1cc[n+](C)c1 [1-butyl-3-methylimidazolium acetate]
4 | 364.3 ± 16 | 0.04102 ± 0.00041 | 0.0558 ± 0.00056 | 193.1 ± 6.3 | 0.0752 ± 0.00076 | 0.0992 ± 0.001 | 111.6 ± 2.4 | – | 0.165 ± 0.0017 | 69.24 ± 0.9 | 0.208 ± 0.0021 | 0.258 ± 0.0026 | 45.43 ± 0.58 | 0.315 ± 0.0032 | 0.129 ± 0.0013 | CCCC(=O)[O-].CCCC[n+]1ccn(C)c1 [3-butyl-1-methyl-1H-imidazolium butanoate]

— the NIST ThermoML archive (doi:10.1021/je300507h)
